According to patent publication US20170190705A1, “Compositions and Methods for Inhibiting BMP” (THE BRIGHAM AND WOMAN'S HOSPITAL, INC., priority 2014, published 2017):

Tests used:
Assay type in all cases: biochemical
PAK3 = PAK3 (Homo sapiens, UniProt O75914); experiment: Kinome profiling PAK3; conditions: read-out: Inhibitory activity PAK3; for inhibition at 0.1 µM: 100 nM
Procedure: (§1) . The kinome-wide selectivity was determined following the methods previously reported by Mohedas et al., ACS Chem Biol 2013, 8, 1291-1302 and Sanvitale et al., PLoS One 2013, 8, e62721.

CHEK2 = CHEK2 (Homo sapiens, UniProt O96017); experiment: Kinome profiling CHEK2; conditions: read-out: Inhibitory activity CHEK2; for inhibition at 0.1 µM: 100 nM
CHEK2, sequence (O96017 whole entry): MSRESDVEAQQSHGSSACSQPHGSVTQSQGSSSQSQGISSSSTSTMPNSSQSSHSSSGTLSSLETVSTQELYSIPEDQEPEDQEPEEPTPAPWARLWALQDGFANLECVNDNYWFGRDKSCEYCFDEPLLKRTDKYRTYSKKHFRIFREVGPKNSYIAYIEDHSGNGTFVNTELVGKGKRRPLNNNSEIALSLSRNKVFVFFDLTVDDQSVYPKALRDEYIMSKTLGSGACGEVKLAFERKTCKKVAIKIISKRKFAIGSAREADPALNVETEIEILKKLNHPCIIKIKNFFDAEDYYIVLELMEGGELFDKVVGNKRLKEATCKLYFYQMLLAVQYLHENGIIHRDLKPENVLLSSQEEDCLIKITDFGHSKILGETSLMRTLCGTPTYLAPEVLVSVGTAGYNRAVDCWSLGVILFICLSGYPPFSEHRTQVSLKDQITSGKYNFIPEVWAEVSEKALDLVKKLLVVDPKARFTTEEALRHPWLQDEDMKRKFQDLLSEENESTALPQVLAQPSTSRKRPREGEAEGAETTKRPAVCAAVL
Procedure: as §1

ALK2 = ALK2 (Homo sapiens, UniProt Q04771); experiment: Kinome profiling ALK2; conditions: Table 4, read-out: Inhibitory Activity ALK2
Procedure: as §1

DYRK1A = DYRK1A (Homo sapiens, UniProt Q13627); experiment: Kinome profiling DYRK1A; conditions: read-out: Inhibitory activity DYRK1A; for inhibition at 0.1 µM: 100 nM
Procedure: as §1

MAPKAPK3 = MAPKAPK3 (Homo sapiens, UniProt Q16644); experiment: Kinome profiling MAPKAPK3; conditions: read-out: Inhibitory activity MAPKAPK3; for inhibition at 0.1 µM: 100 nM
MAPKAPK3, sequence (Q16644 whole entry): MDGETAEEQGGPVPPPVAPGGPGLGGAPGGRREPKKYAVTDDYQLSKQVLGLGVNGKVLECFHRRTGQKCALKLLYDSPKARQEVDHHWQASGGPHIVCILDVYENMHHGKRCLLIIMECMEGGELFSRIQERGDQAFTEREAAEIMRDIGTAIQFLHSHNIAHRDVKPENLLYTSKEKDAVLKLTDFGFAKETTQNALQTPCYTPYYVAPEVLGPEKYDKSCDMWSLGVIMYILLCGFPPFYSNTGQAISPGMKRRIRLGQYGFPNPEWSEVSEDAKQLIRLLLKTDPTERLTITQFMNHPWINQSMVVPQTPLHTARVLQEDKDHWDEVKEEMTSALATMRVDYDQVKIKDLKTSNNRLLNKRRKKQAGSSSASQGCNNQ
Procedure: as §1

RIPK2 = RIPK2 (Homo sapiens, UniProt O43353); experiment: Kinome profiling RIPK2; conditions: Table 4, read-out: Inhibitory Activity RIPK2
Procedure: as §1

JAK2 = JAK2 (Homo sapiens, UniProt O60674); experiment: Kinome profiling JAK2; conditions: read-out: Inhibitory activity JAK2; for inhibition at 0.1 µM: 100 nM
JAK2, sequence (O60674 whole entry): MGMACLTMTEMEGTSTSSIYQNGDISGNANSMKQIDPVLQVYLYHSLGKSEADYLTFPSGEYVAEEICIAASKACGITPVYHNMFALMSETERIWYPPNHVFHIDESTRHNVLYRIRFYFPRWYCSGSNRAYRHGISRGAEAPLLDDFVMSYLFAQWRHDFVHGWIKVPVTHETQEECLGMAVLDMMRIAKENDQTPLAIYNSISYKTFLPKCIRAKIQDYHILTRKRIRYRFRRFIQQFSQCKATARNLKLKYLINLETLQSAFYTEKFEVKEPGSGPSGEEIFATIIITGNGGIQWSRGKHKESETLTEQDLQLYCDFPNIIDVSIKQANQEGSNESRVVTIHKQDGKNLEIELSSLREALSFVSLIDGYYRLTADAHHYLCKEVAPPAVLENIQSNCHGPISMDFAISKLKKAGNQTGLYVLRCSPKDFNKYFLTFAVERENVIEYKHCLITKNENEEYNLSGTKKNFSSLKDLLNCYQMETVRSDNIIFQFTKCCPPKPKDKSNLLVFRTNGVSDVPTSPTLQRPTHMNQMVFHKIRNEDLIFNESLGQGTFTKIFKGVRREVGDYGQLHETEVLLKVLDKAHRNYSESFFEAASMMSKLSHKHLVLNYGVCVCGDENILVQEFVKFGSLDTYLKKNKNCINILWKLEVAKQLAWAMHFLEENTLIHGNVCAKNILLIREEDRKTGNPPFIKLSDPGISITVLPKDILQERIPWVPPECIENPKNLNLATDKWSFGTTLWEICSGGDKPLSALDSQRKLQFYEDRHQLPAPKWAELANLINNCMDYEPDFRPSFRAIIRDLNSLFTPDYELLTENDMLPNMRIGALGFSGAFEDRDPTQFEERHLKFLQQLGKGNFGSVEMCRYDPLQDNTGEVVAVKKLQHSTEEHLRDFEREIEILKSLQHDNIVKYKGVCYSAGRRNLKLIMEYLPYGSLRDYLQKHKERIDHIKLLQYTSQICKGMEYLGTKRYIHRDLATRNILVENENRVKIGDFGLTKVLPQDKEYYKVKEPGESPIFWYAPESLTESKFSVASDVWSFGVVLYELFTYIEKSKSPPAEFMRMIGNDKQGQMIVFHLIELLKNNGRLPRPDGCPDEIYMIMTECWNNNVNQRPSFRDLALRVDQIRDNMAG
Procedure: as §1

MSK2 = MSK2 (Homo sapiens, UniProt O75676); experiment: Kinome profiling MSK2; conditions: read-out: Inhibitory activity MSK2; for inhibition at 0.1 µM: 100 nM
MSK2, sequence (O75676 whole entry): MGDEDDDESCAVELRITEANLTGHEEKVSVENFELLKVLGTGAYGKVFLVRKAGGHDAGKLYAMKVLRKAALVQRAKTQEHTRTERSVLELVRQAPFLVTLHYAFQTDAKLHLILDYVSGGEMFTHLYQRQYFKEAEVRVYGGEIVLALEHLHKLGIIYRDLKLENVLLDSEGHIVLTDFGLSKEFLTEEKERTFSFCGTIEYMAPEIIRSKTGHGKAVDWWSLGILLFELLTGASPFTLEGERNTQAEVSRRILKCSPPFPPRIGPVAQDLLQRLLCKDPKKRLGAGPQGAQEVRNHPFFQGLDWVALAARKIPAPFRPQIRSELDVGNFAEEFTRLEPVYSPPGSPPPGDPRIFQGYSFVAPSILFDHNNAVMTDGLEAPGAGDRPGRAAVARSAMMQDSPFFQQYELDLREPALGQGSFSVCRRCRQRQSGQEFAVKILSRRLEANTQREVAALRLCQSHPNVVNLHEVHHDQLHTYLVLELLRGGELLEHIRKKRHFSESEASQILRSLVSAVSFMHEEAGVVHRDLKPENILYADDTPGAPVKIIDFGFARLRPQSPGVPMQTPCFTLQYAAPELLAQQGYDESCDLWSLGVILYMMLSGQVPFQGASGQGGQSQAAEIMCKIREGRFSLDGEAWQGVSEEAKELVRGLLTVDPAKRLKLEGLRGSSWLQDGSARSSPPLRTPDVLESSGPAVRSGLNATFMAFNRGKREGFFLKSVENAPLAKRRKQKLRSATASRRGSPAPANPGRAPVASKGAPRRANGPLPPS
Procedure: as §1

MAP4K5 = MAP4K5 (Homo sapiens, UniProt Q9Y4K4); experiment: Kinome profiling MAP4K5; conditions: Table 4, read-out: Inhibitory Activity MAP4K5
Procedure: as §1

DYRK2 = target: T1, DYRK2 (Homo sapiens, UniProt Q92630); experiment: Kinome profiling DYRK2; conditions: read-out: Inhibitory activity DYRK2; for inhibition at 0.1 µM: 100 nM
T1 sequence (Q92630 1-601): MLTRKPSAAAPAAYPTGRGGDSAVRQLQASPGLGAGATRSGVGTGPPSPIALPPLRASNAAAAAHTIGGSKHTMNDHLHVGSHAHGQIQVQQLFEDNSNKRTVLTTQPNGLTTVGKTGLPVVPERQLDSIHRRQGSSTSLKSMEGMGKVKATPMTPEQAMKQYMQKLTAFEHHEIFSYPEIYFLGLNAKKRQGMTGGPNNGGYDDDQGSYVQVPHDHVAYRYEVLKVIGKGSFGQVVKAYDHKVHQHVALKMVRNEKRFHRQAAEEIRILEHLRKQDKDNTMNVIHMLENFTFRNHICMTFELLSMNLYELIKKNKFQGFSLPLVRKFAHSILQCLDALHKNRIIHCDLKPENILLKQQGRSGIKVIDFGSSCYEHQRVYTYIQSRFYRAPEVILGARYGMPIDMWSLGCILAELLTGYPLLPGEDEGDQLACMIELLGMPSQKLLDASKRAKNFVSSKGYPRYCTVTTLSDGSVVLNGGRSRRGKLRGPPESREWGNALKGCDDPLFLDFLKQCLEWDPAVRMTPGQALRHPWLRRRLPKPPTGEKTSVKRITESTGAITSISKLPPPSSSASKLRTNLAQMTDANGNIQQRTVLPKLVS
Procedure: as §1

ALK6 = ALK6 (Homo sapiens, UniProt O00238); experiment: Kinome profiling ALK6; conditions: Table 4, read-out: Inhibitory Activity ALK6
Procedure: as §1

TNIK = TNIK (Homo sapiens, UniProt Q9UKE5); experiment: Kinome profiling TNIK; conditions: Table 4, read-out: Inhibitory Activity TNIK
Procedure: as §1

PTK5 = PTK5 (Homo sapiens, UniProt P42685); experiment: Kinome profiling PTK5; conditions: read-out: Inhibitory activity PTK5; for inhibition at 0.1 µM: 100 nM
PTK5, sequence (P42685 whole entry): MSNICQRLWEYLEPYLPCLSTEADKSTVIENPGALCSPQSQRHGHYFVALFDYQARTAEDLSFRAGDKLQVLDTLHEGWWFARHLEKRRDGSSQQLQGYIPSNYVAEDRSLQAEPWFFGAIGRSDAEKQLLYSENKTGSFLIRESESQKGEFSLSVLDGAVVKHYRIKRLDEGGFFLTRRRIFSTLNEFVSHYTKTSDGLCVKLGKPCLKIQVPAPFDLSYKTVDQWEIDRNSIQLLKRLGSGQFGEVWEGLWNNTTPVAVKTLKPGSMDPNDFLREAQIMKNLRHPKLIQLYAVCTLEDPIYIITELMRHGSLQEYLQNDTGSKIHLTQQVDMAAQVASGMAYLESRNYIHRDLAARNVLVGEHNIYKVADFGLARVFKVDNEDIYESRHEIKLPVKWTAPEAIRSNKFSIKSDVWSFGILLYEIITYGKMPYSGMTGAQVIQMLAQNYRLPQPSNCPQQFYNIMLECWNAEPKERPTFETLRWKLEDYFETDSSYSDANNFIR
Procedure: as §1

PAR-1Bα = PAR-1Bα (Homo sapiens, UniProt Q7KZI7); experiment: Kinome profiling PAR-1Bα; conditions: read-out: Inhibitory activity PAR-1Bα; for inhibition at 0.1 µM: 100 nM
PAR-1Bα, sequence (Q7KZI7 1-725 isoform Q7KZI7-4): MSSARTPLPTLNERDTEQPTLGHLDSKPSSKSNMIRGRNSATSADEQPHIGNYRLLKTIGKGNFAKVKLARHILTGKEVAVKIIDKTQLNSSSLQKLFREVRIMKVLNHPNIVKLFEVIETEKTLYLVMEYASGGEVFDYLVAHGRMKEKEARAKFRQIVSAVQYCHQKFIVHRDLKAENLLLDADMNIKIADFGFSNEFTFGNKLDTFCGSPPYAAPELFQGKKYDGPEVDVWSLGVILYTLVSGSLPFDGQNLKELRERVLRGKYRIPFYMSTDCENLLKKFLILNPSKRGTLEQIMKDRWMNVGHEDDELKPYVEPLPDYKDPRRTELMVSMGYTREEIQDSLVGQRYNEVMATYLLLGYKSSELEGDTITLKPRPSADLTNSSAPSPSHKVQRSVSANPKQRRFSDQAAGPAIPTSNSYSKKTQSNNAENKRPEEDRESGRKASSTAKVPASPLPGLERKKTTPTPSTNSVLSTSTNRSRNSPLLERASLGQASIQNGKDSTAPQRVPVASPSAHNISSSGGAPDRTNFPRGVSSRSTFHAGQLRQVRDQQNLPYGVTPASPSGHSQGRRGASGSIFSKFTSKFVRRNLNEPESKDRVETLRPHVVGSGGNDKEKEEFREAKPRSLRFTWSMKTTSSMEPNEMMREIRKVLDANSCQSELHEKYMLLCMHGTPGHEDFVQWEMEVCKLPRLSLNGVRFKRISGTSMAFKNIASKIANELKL
Procedure: as §1

IKK-α = target: T2, IKK-α (Homo sapiens, UniProt O15111); experiment: Kinome profiling IKK-α; conditions: read-out: Inhibitory activity IKK-α; for inhibition at 0.1 µM: 100 nM
T2 sequence (O15111 1-745): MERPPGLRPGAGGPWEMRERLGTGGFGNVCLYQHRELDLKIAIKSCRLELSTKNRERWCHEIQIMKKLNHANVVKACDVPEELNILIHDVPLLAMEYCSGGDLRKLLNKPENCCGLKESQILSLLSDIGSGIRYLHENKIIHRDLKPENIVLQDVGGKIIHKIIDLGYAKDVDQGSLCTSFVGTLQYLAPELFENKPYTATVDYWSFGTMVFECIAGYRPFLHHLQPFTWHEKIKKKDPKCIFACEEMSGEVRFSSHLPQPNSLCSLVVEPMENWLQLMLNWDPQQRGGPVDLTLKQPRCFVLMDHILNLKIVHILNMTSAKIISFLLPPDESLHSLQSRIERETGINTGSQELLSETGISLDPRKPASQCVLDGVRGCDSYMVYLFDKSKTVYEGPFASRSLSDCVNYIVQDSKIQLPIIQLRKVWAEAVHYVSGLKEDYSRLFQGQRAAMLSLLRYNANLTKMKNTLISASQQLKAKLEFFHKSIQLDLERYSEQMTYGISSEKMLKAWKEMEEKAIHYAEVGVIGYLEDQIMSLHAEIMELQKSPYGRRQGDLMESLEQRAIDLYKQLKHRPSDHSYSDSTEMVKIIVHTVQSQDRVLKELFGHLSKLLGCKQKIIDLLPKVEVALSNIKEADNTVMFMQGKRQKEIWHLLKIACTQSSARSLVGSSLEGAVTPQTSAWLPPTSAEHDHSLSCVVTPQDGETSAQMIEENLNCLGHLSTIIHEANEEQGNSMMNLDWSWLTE
Procedure: as §1

PAK3, sequence (O75914 whole entry): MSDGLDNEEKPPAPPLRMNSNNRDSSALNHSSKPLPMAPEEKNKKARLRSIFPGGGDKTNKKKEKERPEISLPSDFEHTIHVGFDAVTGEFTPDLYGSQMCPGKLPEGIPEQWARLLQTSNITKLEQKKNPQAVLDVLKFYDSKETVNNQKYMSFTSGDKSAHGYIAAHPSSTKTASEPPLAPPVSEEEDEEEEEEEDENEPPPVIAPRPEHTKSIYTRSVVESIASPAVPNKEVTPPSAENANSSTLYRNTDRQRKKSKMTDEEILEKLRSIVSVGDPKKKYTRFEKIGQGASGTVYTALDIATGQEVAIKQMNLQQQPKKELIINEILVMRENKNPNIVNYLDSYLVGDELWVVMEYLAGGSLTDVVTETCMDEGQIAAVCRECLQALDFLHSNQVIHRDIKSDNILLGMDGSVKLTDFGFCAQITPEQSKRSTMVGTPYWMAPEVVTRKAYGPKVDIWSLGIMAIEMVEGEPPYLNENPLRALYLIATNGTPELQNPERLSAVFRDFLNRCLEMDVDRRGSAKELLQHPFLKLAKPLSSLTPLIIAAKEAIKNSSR

| SMILES | inhibition at 0.1 µM (PAK3) [%] | inhibition at 1 µM (PAK3) [%] | inhibition at 0.1 µM (CHEK2) [%] | inhibition at 1 µM (CHEK2) [%] | inhibition at 0.1 µM (DYRK1A) [%] | inhibition at 1 µM (DYRK1A) [%] | inhibition at 0.1 µM (MAPKAPK3) [%] | inhibition at 1 µM (MAPKAPK3) [%] | inhibition at 0.1 µM (JAK2) [%] | inhibition at 1 µM (JAK2) [%] | inhibition at 0.1 µM (MSK2) [%] | inhibition at 1 µM (MSK2) [%] | inhibition at 0.1 µM (DYRK2) [%] | inhibition at 1 µM (DYRK2) [%] | inhibition at 0.1 µM (PTK5) [%] | inhibition at 1 µM (PTK5) [%] | inhibition at 0.1 µM (PAR-1Bα) [%] | inhibition at 1 µM (PAR-1Bα) [%] | inhibition at 0.1 µM (IKK-α) [%] | inhibition at 1 µM (IKK-α) [%] | also measured |
| --- | --- | --- | --- | --- | --- | --- | --- | --- | --- | --- | --- | --- | --- | --- | --- | --- | --- | --- | --- | --- | --- |
| COc1cc(-c2cc(-c3ccc(N4CCNCC4)cc3)cnc2C)cc(OC)c1OC [Compound 10, 1-(4-(6-methyl-5-(3,4,5-trimethoxyphenyl)pyridin-3-yl)phenyl)piperazine] | 2 | 2 | 1 | 8 | 3 | 5 | -1 | 0 | 5 | 4 | 0 | 1 | 2 | 1 | 1 | 11 | 2 | 4 | 3 | 4 | inhibition at 0.1 µM (ALK2; 100 nM): 67%; inhibition at 1 µM (ALK2; 1 μM): 99%; inhibition at 0.1 µM (RIPK2; 100 nM): 71%; inhibition at 1 µM (RIPK2; 1 μM): 97%; inhibition at 0.1 µM (MAP4K5; 100 nM): 43%; inhibition at 1 µM (MAP4K5; 1 μM): 86%; inhibition at 0.1 µM (ALK6; 100 nM): 11%; inhibition at 1 µM (ALK6; 1 μM): 60%; inhibition at 0.1 µM (TNIK; 100 nM): 71%; inhibition at 1 µM (TNIK; 1 μM): 98% |
| COc1cc(-c2cc(-c3ccc(N4CCNCC4)cc3)cnc2N)cc(OC)c1OC [Compound 15, 5-(4-(piperazin-1-yl)phenyl)-3-(3,4,5-trimethoxyphenyl)pyridin-2-amine] | 1 | 1 | 2 | 7 | 2 | 5 | 1 | 1 | 0 | 0 | 1 | -1 | 2 | 0 | 17 | 66 | 1 | 19 | -1 | -2 |  |
